# Measured values: publication PMC11532494 (Nature Communications, 2024)
# Where “and” joins values, the source holds several entries; their conditions need not be identical. Identical values can stand only once.
# How the values were obtained:
# [1] = biological target: PA1409 (Pseudomonas aeruginosa, UniProt Q9I3T5); assay: Acetyl-polyamine deacetylase assay (positive control); format: biochemical; conditions: for [acetate] (individual samples): PA1409, acetate released from acetyl-polyamine substrate, Sample 1-2; for [acetate] mean: mean of samples
# [2] = biological target: PsApaH (4) (Pseudomonas sp. M30-35, UniProt A0A1Y0KY79); assay: Acetyl-polyamine deacetylase assay; format: biochemical; conditions: for [acetate] (individual samples): acetate released from acetyl-polyamine substrate, Sample 1-3; for [acetate] mean: mean of samples
# Sequence of PsApaH (4) (A0A1Y0KY79 1-342 limits assumed): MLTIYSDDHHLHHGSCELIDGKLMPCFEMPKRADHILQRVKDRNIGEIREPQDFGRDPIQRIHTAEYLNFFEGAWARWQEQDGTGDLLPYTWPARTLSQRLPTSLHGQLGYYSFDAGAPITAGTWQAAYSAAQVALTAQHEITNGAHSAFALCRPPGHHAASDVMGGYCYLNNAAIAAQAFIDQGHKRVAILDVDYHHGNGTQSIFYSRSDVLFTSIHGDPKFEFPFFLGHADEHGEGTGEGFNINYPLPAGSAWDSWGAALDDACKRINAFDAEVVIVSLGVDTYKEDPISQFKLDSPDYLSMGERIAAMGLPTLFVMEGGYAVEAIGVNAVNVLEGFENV
# Sequence of PA1409 (Q9I3T5 whole entry): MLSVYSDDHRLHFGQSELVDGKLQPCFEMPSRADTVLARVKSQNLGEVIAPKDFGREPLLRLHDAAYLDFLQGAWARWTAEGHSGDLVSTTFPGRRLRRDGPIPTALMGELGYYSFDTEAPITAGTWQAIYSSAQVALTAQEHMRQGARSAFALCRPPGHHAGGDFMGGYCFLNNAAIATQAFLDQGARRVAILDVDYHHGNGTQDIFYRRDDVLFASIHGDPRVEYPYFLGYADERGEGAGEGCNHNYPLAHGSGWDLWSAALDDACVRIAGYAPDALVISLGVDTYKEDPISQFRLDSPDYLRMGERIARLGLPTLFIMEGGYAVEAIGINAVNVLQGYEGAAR
Compound,[acetate] (individual samples) ([1]; time 5 min),[acetate] (individual samples) ([1]; time 10 min),[acetate] (individual samples) ([1]; time 20 min),[acetate] (individual samples) ([1]; time 45 min),"[acetate] mean ([1]; PA1409, time 5 min)","[acetate] mean ([1]; PA1409, time 10 min)","[acetate] mean ([1]; PA1409, time 20 min)","[acetate] mean ([1]; PA1409, time 45 min)",[acetate] (individual samples) ([2]; time 5 min),[acetate] (individual samples) ([2]; time 10 min),[acetate] (individual samples) ([2]; time 20 min),[acetate] (individual samples) ([2]; time 45 min),[acetate] mean ([2]; time 5 min),[acetate] mean ([2]; time 10 min),[acetate] mean ([2]; time 20 min),[acetate] mean ([2]; time 45 min)
CC(=O)NCCCCCN [N1-acetylcadaverine],3.7616 mM and 3.63 mM,14.5405 mM and 14.4965 mM,22.4156 mM and 22.0637 mM,23.2955 mM and 23.4715 mM,3.696 mM,14.5185 mM,22.2396 mM,23.3835 mM,2.228 mM and 2.337 mM and 2.011 mM,5.272 mM and 5.38 mM and 5.337 mM,7.446 mM and 7.663 mM and 8.054 mM,9.337 mM and 10.2283 mM and 9.967 mM,2.192 mM,5.33 mM,7.721 mM,9.844 mM
CC(=O)NCCCCN [N1-acetylputrescine],2.66 mM and 2.46 mM,,10.76 mM and 10.61 mM,15.78 mM and 16.29 mM,2.56 mM,,10.685 mM,16.035 mM,1.6 mM (2×) and 2.1 mM,8.8 mM and 8.3 mM and 8 mM,12 mM and 13 mM and 12.2 mM,18 mM and 16.6 mM and 17.6 mM,1.767 mM,8.367 mM,12.4 mM,17.4 mM
CC(=O)NCCCNCCCCN [N1-acetylspermidine],1.542 mM and 1.762 mM,8.1499 mM and 9.163 mM,14.4496 mM and 14.5817 mM,15.6831 mM and 14.9782 mM,1.652 mM,8.657 mM,14.5156 mM,15.3306 mM,0.06608 mM and 0.08811 mM,0.06608 mM and 0.1322 mM,0.3304 mM and 0.3084 mM,0.2643 mM and 0.3965 mM,0.07709 mM,0.09912 mM,0.3194 mM,0.3304 mM
CC(=O)NCCCNCCCCNCCCN [N1-acetylspermine],4.758 mM and 5.242 mM,18.4144 mM and 18.3703 mM,24.4938 mM and 25.2427 mM,26.7845 mM and 27.0048 mM,5 mM,18.3923 mM,24.8682 mM,26.8947 mM,3.446 mM and 3.815 mM and 3.598 mM,5.9022 mM and 5.728 mM and 6.011 mM,8.6196 mM and 9.685 mM and 8.576 mM,12.6414 mM and 13.25 mM and 13.0327 mM,3.62 mM,5.88 mM,8.96 mM,12.9747 mM
CC(=O)NCCCNCCCCNCCCN [N1/N12-acetylspermine],3.921 mM and 3.216 mM,19.1192 mM and 18.2382 mM,34.0974 mM and 33.8331 mM,42.3354 mM and 46.7408 mM,3.568 mM,18.6787 mM,33.9653 mM,44.5381 mM,2.337 mM and 2.446 mM and 2.554 mM,4.0761 mM and 4.1848 mM and 4.12 mM,7.467 mM and 7.707 mM and 7.62 mM,11.6196 mM and 12.1848 mM and 11.8587 mM,2.446 mM,4.127 mM,7.598 mM,11.8877 mM
CC(=O)NCCCCNCCCN [N8-acetylspermidine],5.081 mM and 5.477 mM,19.9519 mM and 19.336 mM,23.7355 mM and 22.9876 mM,24.7914 mM and 25.3193 mM,5.279 mM,19.6439 mM,23.3615 mM,25.0553 mM,,2.185 mM and 2.098 mM and 1.946 mM,3.446 mM and 3.4674 mM and 3.489 mM,4.967 mM and 5.12 mM (2×),,2.076 mM,3.4674 mM,5.069 mM
